Assay results as given in the Deep4Chem optical property database.
One block for each molecule: values may come before it.

Assay: photoluminescence quantum yield (fraction); solvent given as SMILES

photoluminescence quantum yield (in C1COCCO1): 0.71
SMILES: c1ccc(-c2ccc(-c3ccc(-c4ccccc4)cc3)cc2)cc1

photoluminescence quantum yield (in C1CCOC1): 0.529
SMILES: CCCCCOc1ccc2c(c1)c1ccc3cccc4c5cccc6oc(=O)c2c(c65)c1c34

photoluminescence quantum yield (in ClCCl): 0.36
SMILES: C[Si]1(C)c2ccc(C#Cc3ccccc3)cc2C=Cc2cc(C#Cc3ccccc3)ccc21

photoluminescence quantum yield (in C1CCCCC1): 0.45
photoluminescence quantum yield (in CCOC(C)=O): 0.11
SMILES: CC1=[N+]2C(=C(Oc3cc(C)c4c(c3)CC[C@@](C)(CCC[C@H](C)CCC[C@H](C)CCCC(C)C)O4)c3ccc(C)n3[B-]2(F)F)C=C1c1cc2n(c1)[B-](F)(F)[N+]1=CC=CC1=C2c1c(C)cc(C)cc1C

photoluminescence quantum yield (in C1CCOC1): 0.09
SMILES: COc1ccc(-c2cc3ccccc3p2-c2ccccc2)cc1 (stereo unspecified)

photoluminescence quantum yield (in ClCCl): 0.39
SMILES: c1ccc2c(c1)ccc1ccc3c(c12)-c1c(ccc2ccc4ccccc4c12)C3

photoluminescence quantum yield (in ClCCl): 0.53
SMILES: CC(C)c1cccc(C(C)C)c1N1C(=O)c2ccc3cc4c(cc5ccc6c7c(ccc4c57)C(=O)N(c4c(C(C)C)cccc4C(C)C)C6=O)c4ccc(c2c34)C1=O

photoluminescence quantum yield (in ClC(Cl)Cl): 0.06
SMILES: F[B-]1(F)n2c(c(-c3ccccc3)c3c2C2=Cc4ccccc4OC2CC3)C=C2C(c3ccccc3)=C3CCC4Oc5ccccc5C=C4C3=[N+]21 (stereo unspecified)

photoluminescence quantum yield (in CCCCCC): 0.25
SMILES: CC(C)[Si](C#Cc1c2nc3ccccc3nc2c(C#C[Si](C(C)C)(C(C)C)C(C)C)c2nc3c(ccc4cc5ccccc5cc43)nc12)(C(C)C)C(C)C

photoluminescence quantum yield (in CC1CCCCC1): 0.003
photoluminescence quantum yield (in CC#N): 0.003
photoluminescence quantum yield (in CO): 0.002
SMILES: COC(=O)C(NC(=O)OC(C)(C)C)c1ccc2oc(-c3ccc(OC(=O)c4ccccc4)cc3OC(=O)c3ccccc3)nc2c1 (stereo unspecified)

photoluminescence quantum yield (in C1CCOC1): 0.056
SMILES: CN(C)c1ccc(C(=Cc2ccc(C#N)cc2)c2ccc(N(C)C)cc2)cc1

photoluminescence quantum yield (in c1cc(-c2cccc(-n3c4ccccc4c4ccccc43)c2)cc(-n2c3ccccc3c3ccccc32)c1): 0.52
SMILES: O=c1oc2ccccc2c2cc(N3c4ccccc4Oc4ccccc43)ccc12

photoluminescence quantum yield (in ClCCl): 0.2
SMILES: CCCCCCc1cc2c(s1)-c1cc3c(cc1NB2c1ccccc1)-c1sc(CCCCCC)cc1B(c1ccccc1)N3

photoluminescence quantum yield (in C1CCCCC1): 0.85
SMILES: CCC(C)(C)c1ccc2c(c1)C(CC)(CC)c1cc(-c3ccc4c(c3)C(CC)(CC)c3cc(C(C)(C)CC)ccc3-4)ccc1-2

photoluminescence quantum yield (in C1CCOC1): 0.006
SMILES: O=P1(c2ccccc2)C(c2cccs2)=C(c2cccs2)c2ccccc21 (stereo unspecified)

photoluminescence quantum yield (in ClCCl): 0.15
SMILES: Cn1cc(-c2nc3ccccc3nc2C#Cc2ccc(C#N)cc2)c2ccccc21

photoluminescence quantum yield (in C1CCCCC1): 0.98
SMILES: c1cc2c3c(c1)OCCCCCCCOc1cccc(c1-c1c4ccccc4c-3c3ccccc13)OCCCCCCCO2

photoluminescence quantum yield (in C1CCOC1): 0.029
photoluminescence quantum yield (in ClC(Cl)Cl): 0.04
SMILES: CCCCCCCCC1(CCCCCCCC)c2cc3c(cc2-c2sc(-c4ccc(/C=C5\SC(=S)N(CC)C5=O)c5nsnc45)cc21)C(CCCCCCCC)(CCCCCCCC)c1cc(-c2ccc(/C=C4\SC(=S)N(CC)C4=O)c4nsnc24)sc1-3

photoluminescence quantum yield (in ClC(Cl)Cl): 0.61
SMILES: c1ccc2sc(-c3ccc(-c4nnc(-c5ccc(-c6nnc(-c7ccc(-c8cc9ccccc9s8)s7)o6)cc5)o4)s3)cc2c1

photoluminescence quantum yield (in CO): 0.0103
SMILES: C(C1=[NH+]c2cccc3cccc1c23)=c1[nH]c2cccc3cccc1c32

photoluminescence quantum yield (in ClC(Cl)Cl): 0.19
SMILES: c1ccc(-c2nc(-c3ccc(N4CCCC4)cc3)cc(-c3ccc4ccccc4c3)n2)cc1

photoluminescence quantum yield (in ClCCl): 0.33
SMILES: CCCCn1c(-c2ccc(-c3nnc(-c4cccs4)o3)cc2)nc(-c2ccccc2)c1-c1ccccc1

photoluminescence quantum yield (in C1CCCCC1): 0.33
photoluminescence quantum yield (in C1COCCO1): 0.47
photoluminescence quantum yield (in CC#N): 0.28
photoluminescence quantum yield (in CC(C)O): 0.4
photoluminescence quantum yield (in CCCCCC): 0.37
photoluminescence quantum yield (in ClC(Cl)Cl): 0.42
photoluminescence quantum yield (in c1ccccc1): 0.29
SMILES: CC1(C)CCc2c(c3ccccc3c3nc4c(nc23)c2c(c3ccccc34)OC(C)(C)CC2)O1

photoluminescence quantum yield (in ClCCl): 0.91
SMILES: N#Cc1ccc(N(c2ccc(C#N)cc2)c2ccc3c4cccc5c(N(c6ccc(C#N)cc6)c6ccc(C#N)cc6)ccc(c6cccc2c63)c54)cc1

photoluminescence quantum yield (in C1COCCO1): 0.87
SMILES: CCC12C(=C3C(=C4c5ccc(-c6ccc(C(C)=O)cc6)cc5S(=O)(=O)C41CC)C(F)(F)C(F)(F)C3(F)F)c1ccc(-c3ccc(C(C)=O)cc3)cc1S2(=O)=O (stereo unspecified)

photoluminescence quantum yield (in C1CCOC1): 0.96
SMILES: FC(F)(F)c1ccc(C2=CC3=c4cc(-c5ccc(C(F)(F)F)cc5)c5nc(C(F)(F)C(F)(F)C(F)(F)F)nc6c(-c7ccc(C(F)(F)F)cc7)cc(c4c65)C4=CC(c5ccc(C(F)(F)F)cc5)=C5N=C(C(F)(F)C(F)(F)C(F)(F)F)N=C2C5C43)cc1 (stereo unspecified)

photoluminescence quantum yield (in ClCCl): 0.151
SMILES: CCCCCCCCCCCCN1C(=O)c2c(c3ccc4cc(-c5ccc(C)cc5)c(OC)cc4c3c3c2ccc2cc(-c4ccc(C)cc4)c(OC)cc23)C1=O

The remaining lines, values behind:

SMILES: CN(C)c1ccc(/C=C2\CC/C(=C\c3ccc(C#N)cc3)C2=O)cc1
photoluminescence quantum yield (in C1CCOC1): 0.027
photoluminescence quantum yield (in CC#N): 0.0036
photoluminescence quantum yield (in CC(C)=O): 0.0095
photoluminescence quantum yield (in CC(C)O): 0.026
photoluminescence quantum yield (in CCCCO): 0.017
photoluminescence quantum yield (in CCCCOC(C)=O): 0.14
photoluminescence quantum yield (in CCCO): 0.013
photoluminescence quantum yield (in CCO): 0.0061
photoluminescence quantum yield (in CCOC(=O)c1ccccc1): 0.18
photoluminescence quantum yield (in CCOC(C)=O): 0.09
photoluminescence quantum yield (in CCOCC): 0.074
photoluminescence quantum yield (in CN(C)C=O): 0.0066
photoluminescence quantum yield (in CO): 0.0027
photoluminescence quantum yield (in CS(C)=O): 0.0074
photoluminescence quantum yield (in Cc1ccccc1): 0.05
photoluminescence quantum yield (in ClC(Cl)(Cl)Cl): 0.019
photoluminescence quantum yield (in ClC(Cl)Cl): 0.3
photoluminescence quantum yield (in ClCCl): 0.17
photoluminescence quantum yield (in Clc1ccccc1Cl): 0.29
photoluminescence quantum yield (in O=C1CCCC1): 0.034
photoluminescence quantum yield (in S=C=S): 0.034
photoluminescence quantum yield (in c1ccccc1): 0.066
photoluminescence quantum yield (in c1ccncc1): 0.051

SMILES: CCOC(=O)c1ccc2c(c1)n(C)c1c3ccc(C(=O)OCC)cc3n(C)c21
photoluminescence quantum yield (in CCCO): 0.53

SMILES: CN(C)c1ccc2cc3ccc(=[N+](C)C)cc-3oc2c1
photoluminescence quantum yield (in CCO): 0.48
photoluminescence quantum yield (in O): 0.38

SMILES: CCCCCCOc1ccc(C#Cc2ccc(-c3ccc(-c4ccc(C#Cc5ccc(OCCCCCC)c(OCCCCCC)c5)s4)c4nsnc34)s2)cc1OCCCCCC
photoluminescence quantum yield (in C1CCCCC1): 0.54
photoluminescence quantum yield (in CCOC(C)=O): 0.46
photoluminescence quantum yield (in CN(C)C=O): 0.24
photoluminescence quantum yield (in COc1ccccc1): 0.48
photoluminescence quantum yield (in Cc1ccccc1): 0.55
photoluminescence quantum yield (in ClC(Cl)Cl): 0.43
photoluminescence quantum yield (in ClCCCl): 0.34
photoluminescence quantum yield (in ClCCl): 0.35

SMILES: O=C(O)CC[N+]1=c2cc3c(cc2CCC1)=Cc1c(c2cc4c5c(c2oc1=O)CCCN5CCC4)O3
photoluminescence quantum yield (in CC#N): 0.025
photoluminescence quantum yield (in CO): 0.013
photoluminescence quantum yield (in ClCCl): 0.163
photoluminescence quantum yield (in O): 0.003

SMILES: CCCCCC(CC)C1(C(CC)CCCCC)c2ccccc2-c2ccc(C#Cc3cc(C#Cc4ccc5c(c4)C(C(CC)CCCCC)(C(CC)CCCCC)c4ccccc4-5)c4ccc5c(C#Cc6ccc7c(c6)C(C(CC)CCCCC)(C(CC)CCCCC)c6ccccc6-7)cc(C#Cc6ccc7c(c6)C(C(CC)CCCCC)(C(CC)CCCCC)c6ccccc6-7)c6ccc3c4c65)cc21 (stereo unspecified)
photoluminescence quantum yield (in Cc1ccccc1): 0.67

SMILES: CCOC(=O)C1=CN(c2ccccc2)C=C(C(=O)OCC)C1
photoluminescence quantum yield (in C1CCOC1): 0.2
photoluminescence quantum yield (in CO): 0.16

SMILES: CN(C)c1ccc(C2=Nc3sc4ccccc4[n+]3[B-](F)(F)O2)cc1
photoluminescence quantum yield (in C1CCOC1): 0.78
photoluminescence quantum yield (in CC#N): 0.17
photoluminescence quantum yield (in CC(C)=O): 0.31
photoluminescence quantum yield (in Cc1ccccc1): 0.84
photoluminescence quantum yield (in ClCCl): 0.77

SMILES: CCc1c(C)c2n(c1C)[B-](F)(F)[N+]1=C(C=C3C=Cc4ccccc43)C=CC1=C2C
photoluminescence quantum yield (in C1CCCCC1): 0.02

SMILES: COc1ccc2nc(N)n[n+]([O-])c2c1
photoluminescence quantum yield (in CC#N): 0.472
photoluminescence quantum yield (in O): 0.0868

SMILES: COc1cc(OC)cc(C2=[O+][B-](F)(F)OC(c3cccs3)=C2)c1
photoluminescence quantum yield (in CC#N): 0.002
photoluminescence quantum yield (in CC(C)=O): 0.01
photoluminescence quantum yield (in CCCCCC): 0.16
photoluminescence quantum yield (in Cc1ccccc1): 0.14
photoluminescence quantum yield (in ClCCl): 0.04

SMILES: O=c1c2ccccc2nc2n1[B-](F)(F)[n+]1ccccc1-2
photoluminescence quantum yield (in CC#N): 0.78
photoluminescence quantum yield (in ClCCl): 0.99

SMILES: Cn1cccc1-c1ccc(C#N)cc1
photoluminescence quantum yield (in C1CCOC1): 0.94
photoluminescence quantum yield (in CC#N): 0.51
photoluminescence quantum yield (in CCCCCC): 0.92
photoluminescence quantum yield (in CCCCOCCCC): 1
photoluminescence quantum yield (in CCOCC): 0.98

SMILES: CCCCCc1c(C)c2c3ccccc3[nH]c2c2ccccc12
photoluminescence quantum yield (in ClCCl): 0.167

SMILES: c1csc(-c2c3ccc(=[N+]4CCCCC4)cc-3oc3cc(N4CCCCC4)ccc23)c1
photoluminescence quantum yield (in CCO): 0.1
photoluminescence quantum yield (in ClCCl): 0.33

SMILES: N#Cc1ccc(-c2pc3ccccc3s2)cc1 (stereo unspecified)
photoluminescence quantum yield (in CC#N): 0.017

SMILES: Cc1ccc(C2=C3C=CC(C#Cc4ccccc4)=[N+]3[B-](F)(F)n3c(Cl)ccc32)cc1
photoluminescence quantum yield (in C1CCCCC1): 1
photoluminescence quantum yield (in C1CCOC1): 0.84
photoluminescence quantum yield (in C1COCCO1): 0.97
photoluminescence quantum yield (in CCOC(C)=O): 0.83
photoluminescence quantum yield (in CO): 0.98
photoluminescence quantum yield (in Cc1ccccc1): 0.91
photoluminescence quantum yield (in ClC(Cl)Cl): 0.95

SMILES: c1ccc2nc3cccc(-c4ccc(-n5c6ccccc6c6ccccc65)cc4)c3cc2c1
photoluminescence quantum yield (in CC#N): 0.325
photoluminescence quantum yield (in CCCCCC): 0.0319
photoluminescence quantum yield (in CCOCC): 0.102
photoluminescence quantum yield (in ClCCl): 0.253

SMILES: COc1ccc2c3ccc(OC)cc3n(-c3ccc(-c4nnc(C)o4)cc3)c2c1
photoluminescence quantum yield (in Cc1ccccc1): 0.06

SMILES: Cn1c2ccc(S(=O)(=O)O)cc2c(=O)c2cc(S(=O)(=O)O)ccc21
photoluminescence quantum yield (in CS(C)=O): 0.64
photoluminescence quantum yield (in O): 0.76

SMILES: Cc1ccccc1-c1cc(-c2ccc(N3c4ccccc4C(C)(C)c4ccccc43)cc2)nc(-c2ccccc2)n1
photoluminescence quantum yield (in CC#N): 0.101
photoluminescence quantum yield (in Cc1ccccc1): 0.777
photoluminescence quantum yield (in ClCCl): 0.884

SMILES: CC1(C)c2ccccc2N(c2ccc3c(c2)C(C)(C)c2cc(N4c5ccccc5C(C)(C)c5ccccc54)ccc2S3(=O)=O)c2ccccc21
photoluminescence quantum yield (in O=P(c1ccccc1)(c1ccccc1)c1ccccc1Oc1ccccc1P(=O)(c1ccccc1)c1ccccc1): 0.8

SMILES: CCc1c(C)[nH]c(C2=[N+]3C(=Cc4c(C)c(CC)c(C)n4[B-]3(F)F)c3ccccc32)c1C
photoluminescence quantum yield (in C1CCOC1): 0.09
photoluminescence quantum yield (in CC#N): 0.03
photoluminescence quantum yield (in CCCCCC): 0.86
photoluminescence quantum yield (in CO): 0.04
photoluminescence quantum yield (in Cc1ccccc1): 0.75
photoluminescence quantum yield (in ClCCl): 0.73
